Where no end group is shown, it is not given here.

Data set [1] concerns the target T1, MB peptide (Bacillus subtilis, UniProt Q5BU39). Put plainly: Temperature dependence of MB peptide tetramerization. The class given is physicochemical. More on the design: made in house. The protocol: The tetramerization of MB peptide is however dependent on temperature and the salt concentration of the buffer. In general, the proportion of MB peptide forming a tetramer is reduced with increasing temperature. At approximately 70°C, only monomers of the MB peptide are present. As the salt concentration increases, the tetramerisation increases accordingly at neutral pH values.

Data set [2] addresses T1, MB peptide. The data set is described as follows: SPOT hybridization with TAMRA-MB: regeneration and reversibility. Format: binding. More on the design: made in house; host or cells: chemical SPOT synthesis on membrane (MultiPep synthesizer). To be noted: 25 µM MB in 114 mM phosphate buffer with 50 mM NaF at pH 2.8, over night at 4°C; eight spots. The protocol: A SPOT-analysis was carried out in order to assess oligomerization of the MB peptide and its ability to tether molecules. This approach is analogous to that of affinity chromatography, in that a solid phase-bound synthesized MB peptide is used to bind and isolate a molecule of interest that is tagged with the protein affinity tag of the present invention.
The nitrocellulose membrane which contained the MB peptide was incubated, and thus hybridized, with TAMRA-MB (MB peptide to which the TAMRA colouring agent has been covalently attached). If the spots remained coloured after washing an oligomerisation was judged to have taken place. Solid-phase bound MB peptide was synthesized directly on the membranes. Whatman 50 filter paper (Whatman GmbH, Dassel, Germany) was used for membrane-bound peptide synthesis. SPOT positions with a diameter of 3 mm were defined by treating isolated locations on the membrane with coupling reagents. The membrane bound peptides were assembled by the SPOT synthesizer MultiPep (Intavis Bioanalytical Instruments AG, Köln, Germany) according to standard protocols.
Spotted membranes were washed and blocked according to standard protocols before hybridization. After rinsing once with incubation buffer membranes were hybridized with TAMRA-MB over night at 4 °C under agitation. Incubation results were documented by scanning the membranes with a HP scanjet at 600 dpi. […]

The next data set can be described thus: physchem. To be noted: aqueous buffer.
The target in data set [3] is T1, MB peptide. Put plainly: CD spectroscopy of MB oligomerization at different pH values. Format: physicochemical. Set-up: made in house. To be noted: for ratio 208 nm / 222 nm: 154 mM NaF; for oligomer state: AUC and CD spectroscopy. The source says: The MB monomer is mostly unfolded (~70% random coil), whereby the MB tetramer forms an α-helix. […] This pH sensitive switchability is reversible and occurs completely and suddenly from pH 6.0 to 5.4.
• Figure 1: Molecular model of the secondary protein structure of the helical MB peptide. Hydrophobicity of the peptide MB is also indicated by differential after folding into an ideal helix. Hydrophilic groups are indicated with arrows from above, hydrophobic groups from below. (A) The hydrophobic areas in which the binding takes place. (B) View of the backside. • Figure 2: CD spectroscopy of MB at different pH values. Circular ellipticity of 50 µM MB at 208 nm or 222 nm was measured against buffer pH in 10 mM citrate or 10 mM phosphate buffer with 154 mM NaF at 20°C. Citrate buffer was applied for the pH range from pH 6.5 to 4 and phosphate buffer for the pH ranges 1.5 to 4 and 6.5 to 10. MB structure was uninfluenced by buffer type, because CD spectra in citrate buffer were equal to spectra in phosphate buffer in the overlapping pH regions. The wavelengths 208 nm and 222 nm are characteristic for α-helices. […] (A) The snapshots of the same membrane repeatedly hybridised (left) and regenerated (right) show similar results after each of the six repetitions. […] (B) Plot of the normalized median intensities of each spot against number of incubations. • Figure 4: Mutation analysis of the amino acids important in oligomerization. […] The amino acids numeration is shown as small numbers above the wild type letters, the wt sequence can be found in the middle (black frame). Letters listed vertically above the wt sequence intensify the interactions, letters below weaken or abolish. The bigger the letter size the stronger the influence, linear to the distance of the intensity to the wt mean intensity in times of SD, starting with a minimum of ±2 SD. • Figure 5: Summary of the single-point mutation and length analysis of the MB oligomerization (A) Single-point mutations substantially (p<0.05) influencing the oligomerization were grouped and are represented by bars above or below the wild type sequence (black frame).The amino acids numeration is shown as small numbers above the wild type letters. Bars above the wild type sequence signify an enhanced oligomerization and below a weakened or abolished. The bar size reflects the strength of the mutation's influences on the oligomerization. […] Amino acid positions which were especially mutation-susceptible are marked by a + or -. (B) MB was systematically truncated with a step size of two amino acids from either one of the termini or simultaneously both termini. The shortest still with TAMRA-MB oligomerizing truncates are shown in black frames.
In order to assess the oligomerization properties of MB peptide circular dichroism spectroscopy (CD spectroscopy) was carried out according to standard procedures. The MB tetramerization was triggered by acidic pH values while remaining unchanged in basic conditions. Starting from basic pH 10 down to slightly acidic pH 6 the structure of MB was invariable at constant concentrations. Between pH 6 to 5.4 a rapid and tremendous increase in helicity occurred. Below pH 5.4 the pronounced α-helical MB structure remained constant down to pH 1.5 (see Fig. 2).

In the case of “MKVTSEEKEQLSTAIDRMNEGLDAFIQLYNES [MB peptide]”, the “temperature at which only monomers are present” value at MB peptide [1] was “approximately 70 °C”. Besides, at MB peptide [2], the “consecutive incubations and regenerations with reproducible oligomerization” value is listed as “six”. Also, the solubility (as a rule, how much of the substance goes into solution per volume) in the data set “physchem” is not below 2200 µM. Besides, the “pH range of switch from monomer to α-helical tetramer (increase in helicity)” value at MB peptide [3] (50 µM MB, 10 mM citrate or 10 mM phosphate buffer with 154 mM NaF, 20°C) lay within 6 to 5.4. In addition, on MB peptide [3] (MB monomer), the random coil was ~ 70%. Also, the “ratio 208 nm / 222 nm” value on MB peptide [3] (pH<5.4, 50 µM MB, 20°C) turned out to be 0.93; on MB peptide [3] (pH>6, 50 µM MB, 20°C), 2.18. Also, the oligomer state entry at MB peptide [3] (same concentration (50 µM), pH <5.4) is “converts completely into tetramer”; on MB peptide [3] (up to 50 µM in phosphate buffer at pH 6.5) it was “remains purely as monomer”.

The values above are taken from patent EP2423217A1, “Peptide and protein affinity tag from mistic protein” (Forschungsverbund Berlin E.V., priority 2010, dated 2012).
